Patent US20090005270A1 (priority 2005, published 2009)
Read-outs that look alike come from different tables or passages of the source.

What was measured:
[1] = in vivo; cited from earlier work
[2] = poor metabolizers, 15 mg dose; cited from earlier work
[3] = cited from earlier work
human recombinant CYP2A6 [4] = molecular target: T1, human recombinant CYP2A6 (Homo sapiens, UniProt P10635); experiment: biochemical
human recombinant CYP3A4 = human recombinant CYP3A4 (Homo sapiens, UniProt P08684); experiment: Inhibition of dibenzylfluorescein metabolism by cDNA-expressed CYP3A4 (fluorimetric); conditions: read-out: IC50 (concentration that yields 50% inhibition of the metabolism of dibenzyl-fluorescein), dibenzyl-fluorescein 5 · 10^−7 M
human recombinant CYP2A6 [5] = molecular target: T1, human recombinant CYP2A6; conditions: recombinant enzyme

T1 sequence (P10635 whole entry): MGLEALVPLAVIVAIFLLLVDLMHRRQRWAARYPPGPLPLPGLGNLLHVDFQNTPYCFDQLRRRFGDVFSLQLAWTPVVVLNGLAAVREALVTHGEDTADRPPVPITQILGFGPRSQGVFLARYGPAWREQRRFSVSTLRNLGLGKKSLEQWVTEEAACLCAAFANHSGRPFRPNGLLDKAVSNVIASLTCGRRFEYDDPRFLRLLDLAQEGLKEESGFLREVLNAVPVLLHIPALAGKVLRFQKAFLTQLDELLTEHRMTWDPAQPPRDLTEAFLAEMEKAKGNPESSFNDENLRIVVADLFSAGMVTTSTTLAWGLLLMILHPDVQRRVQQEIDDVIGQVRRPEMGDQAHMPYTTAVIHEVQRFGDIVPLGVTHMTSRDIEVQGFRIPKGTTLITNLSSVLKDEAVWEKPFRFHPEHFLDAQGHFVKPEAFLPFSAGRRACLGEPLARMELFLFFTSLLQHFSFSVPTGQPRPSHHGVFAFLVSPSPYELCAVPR
Sequence of human recombinant CYP3A4 (P08684 whole entry): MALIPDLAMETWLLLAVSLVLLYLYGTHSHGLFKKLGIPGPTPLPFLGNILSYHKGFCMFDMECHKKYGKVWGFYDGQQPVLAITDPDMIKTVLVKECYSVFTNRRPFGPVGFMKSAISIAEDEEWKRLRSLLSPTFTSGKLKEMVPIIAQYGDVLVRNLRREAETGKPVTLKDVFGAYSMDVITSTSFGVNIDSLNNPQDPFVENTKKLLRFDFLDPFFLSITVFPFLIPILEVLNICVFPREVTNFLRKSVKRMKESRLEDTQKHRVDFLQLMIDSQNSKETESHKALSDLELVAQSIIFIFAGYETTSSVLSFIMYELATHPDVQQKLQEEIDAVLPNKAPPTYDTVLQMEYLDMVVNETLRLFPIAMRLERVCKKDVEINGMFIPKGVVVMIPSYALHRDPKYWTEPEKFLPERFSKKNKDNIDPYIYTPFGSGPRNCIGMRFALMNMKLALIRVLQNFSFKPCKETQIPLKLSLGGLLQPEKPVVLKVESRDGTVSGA

In the case of `Br.COc1ccc2c(c1)[C@@]13CCCC[C@H]1[C@@H](C2)N(C)CC3.O` [Dextromethorphan, 3 Methoxy-17-methylmorphinan hydrobromide monohydrate], the “part of the dose forming minor metabolites (D-methoxymorphinane, D-hydroxmorphinane)” value [1] is listed as “Less than 15%”, the “ratio of metabolite to parent drug in 8 hour urine sample” value [2] is listed as 10 to 1 and the plasma level ([3]; fast metabolizers, 30 mg dose, four hours post ingestion) is listed as “less than 5 ng/mL”. The plasma level ([3]; intermediate metabolizers, oral 30 mg, 4 hours) was 10 to 20 ng/mL, the plasma level ([3]; intermediate metabolizers, oral 30 mg, 24 hours postingestion) was “less than 5 ng/mL” and the plasma level ([3]; oral 30 mg, 4 hours (continues the poor metabolizers passage of b121)) was “greater than 10 ng/mL”. The plasma level ([3]; oral 30 mg, 24 hours (continues the poor metabolizers passage of b121)) was “greater than 5 ng/mL” and the IC50 (human recombinant CYP2A6 [4]) was 1820 nM.

For `COc1ccc(CCN(CCCC(C#N)(c2ccc(OC)c(OC)c2)C(C)C)CC(F)(F)F)cc1OC` (stereo not shown) [N-(2,2,2-trifluoroethyl)norverapamil], the IC50 (human recombinant CYP3A4) was 1930 nM.

Work on `CN1CC[C@]23CCCC[C@H]2[C@H]1Cc1ccc(OCC(F)(F)F)cc13` [O-(2,2,2-trifluoroethyl)-N-methylmorphinan] yielded an IC50 (human recombinant CYP2A6 [5]) of 425 nM.
